Assay [1] concerns the target Frizzled-1 (Rattus norvegicus) (UniProt Q08463). Kind of assay: Agonist activity at rat frizzled-1 expressed in human HEK293superTOP flash cells by luciferase reporter gene assay. The format is cell-based. The note with it: HEK293. (A reporter such as luciferase makes a cellular process visible.)
Assay [2] concerns the target Frizzled-2 (Rattus norvegicus) (UniProt Q08464). The assay can be described thus: Agonist activity at rat frizzled-2 expressed in human HEK293superTOP flash cells by luciferase reporter gene assay. The note with it: HEK293. The class given is cell-based.
The target of assay [3] is Frizzled-1 (Rattus norvegicus) (UniProt Q08463). Kind of assay: Antagonist activity at Wnt3a-stimulated rat frizzled-1 expressed in human HEK293superTOP flash cells at 10 nM incubated for 24 hrs by luciferase reporter gene assay relative to control. The note with it: HEK293, filed as antagonist. The format is cell-based.
The target in assay [4] is Frizzled-2 (Rattus norvegicus) (UniProt Q08464). Kind of assay: Antagonist activity at Wnt3a-stimulated rat frizzled-2 expressed in human HEK293superTOP flash cells at 10 nM incubated for 24 hrs by luciferase reporter gene assay relative to control. The format is cell-based. The note with it: HEK293, filed as antagonist.
Assay [5] deals with Frizzled-1 (Rattus norvegicus) (UniProt Q08463). The assay can be described thus: Antagonist activity at Wnt3a-stimulated rat frizzled-1 expressed in CHO cells incubated for 24 hrs by luciferase reporter gene assay relative to control. The class given is cell-based. The note with it: filed as antagonist, concentration not given here.
The target in assay [6] is Frizzled-2 (Rattus norvegicus) (UniProt Q08464). The assay can be described thus: Antagonist activity at Wnt3a-stimulated rat frizzled-2 expressed in CHO cells incubated for 24 hrs by luciferase reporter gene assay relative to control. The format is cell-based. The note with it: filed as antagonist, concentration not given here.
Assay [7] deals with Frizzled-1 (Rattus norvegicus) (UniProt Q08463). The assay can be described thus: Antagonist activity at Wnt3a-stimulated rat frizzled-1 expressed in African green monkey COS7 cells incubated for 24 hrs by luciferase reporter gene assay relative to control. The class given is cell-based. The note with it: filed as antagonist, concentration not given here.
The target in assay [8] is Frizzled-2 (Rattus norvegicus) (UniProt Q08464). The assay can be described thus: Antagonist activity at Wnt3a-stimulated rat frizzled-2 expressed in African green monkey COS7 cells incubated for 24 hrs by luciferase reporter gene assay relative to control. The format is cell-based. The note with it: filed as antagonist, concentration not given here.
The target in assay [9] is Frizzled-1 (Rattus norvegicus) (UniProt Q08463). Kind of assay: Agonist activity at rat frizzled-1 expressed in CHO cells by luciferase reporter gene assay. The class given is cell-based.
In assay [10] the target is Frizzled-2 (Rattus norvegicus) (UniProt Q08464). The assay can be described thus: Agonist activity at rat frizzled-2 expressed in CHO cells by luciferase reporter gene assay. The class given is cell-based.
Assay [11] concerns the target Frizzled-1 (Rattus norvegicus) (UniProt Q08463). The assay can be described thus: Agonist activity at rat frizzled-1 expressed in African green monkey COS7 cells by luciferase reporter gene assay. The format is cell-based.
The target of assay [12] is Frizzled-2 (Rattus norvegicus) (UniProt Q08464). Kind of assay: Agonist activity at rat frizzled-2 expressed in African green monkey COS7 cells by luciferase reporter gene assay. The format is cell-based.
For a further assay, the target named is Frizzled-1 (Rattus norvegicus, UniProt Q08463). Kind of assay: Antagonist activity at Wnt3a-stimulated rat frizzled-1 expressed in human HEK293superTOP flash cells incubated for 24 hrs by luciferase reporter gene assay. The format is cell-based, HEK293.
The next assay addresses Frizzled-2 (Rattus norvegicus, UniProt Q08464). Kind of assay: Antagonist activity at Wnt3a-stimulated rat frizzled-2 expressed in human HEK293superTOP flash cells incubated for 24 hrs by luciferase reporter gene assay. The class given is cell-based, HEK293.

Active and inactive are the calls of the source. No cut-off for these calls is given here. Where a SMILES comes first, the peptide text is derived from it.

Frizzled-1 (Rattus norvegicus), sequence (Q08463 whole entry): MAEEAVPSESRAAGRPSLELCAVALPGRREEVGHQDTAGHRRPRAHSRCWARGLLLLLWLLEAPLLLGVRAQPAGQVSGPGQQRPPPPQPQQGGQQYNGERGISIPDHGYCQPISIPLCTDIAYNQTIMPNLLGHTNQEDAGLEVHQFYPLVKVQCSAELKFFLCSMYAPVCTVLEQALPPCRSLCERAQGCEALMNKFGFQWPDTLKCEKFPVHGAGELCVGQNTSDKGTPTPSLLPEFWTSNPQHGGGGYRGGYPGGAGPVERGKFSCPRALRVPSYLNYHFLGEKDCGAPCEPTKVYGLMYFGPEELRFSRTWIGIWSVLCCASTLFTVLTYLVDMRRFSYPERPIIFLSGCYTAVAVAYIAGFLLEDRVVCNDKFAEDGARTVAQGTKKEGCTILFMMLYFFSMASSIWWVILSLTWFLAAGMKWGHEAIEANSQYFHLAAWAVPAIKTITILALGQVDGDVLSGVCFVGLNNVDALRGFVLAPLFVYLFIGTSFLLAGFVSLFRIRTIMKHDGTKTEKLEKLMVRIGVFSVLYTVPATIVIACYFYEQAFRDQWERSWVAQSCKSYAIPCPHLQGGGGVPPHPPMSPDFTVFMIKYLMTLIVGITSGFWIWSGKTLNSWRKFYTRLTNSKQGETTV
Frizzled-2 (Rattus norvegicus), sequence (Q08464 29-570 limits assumed): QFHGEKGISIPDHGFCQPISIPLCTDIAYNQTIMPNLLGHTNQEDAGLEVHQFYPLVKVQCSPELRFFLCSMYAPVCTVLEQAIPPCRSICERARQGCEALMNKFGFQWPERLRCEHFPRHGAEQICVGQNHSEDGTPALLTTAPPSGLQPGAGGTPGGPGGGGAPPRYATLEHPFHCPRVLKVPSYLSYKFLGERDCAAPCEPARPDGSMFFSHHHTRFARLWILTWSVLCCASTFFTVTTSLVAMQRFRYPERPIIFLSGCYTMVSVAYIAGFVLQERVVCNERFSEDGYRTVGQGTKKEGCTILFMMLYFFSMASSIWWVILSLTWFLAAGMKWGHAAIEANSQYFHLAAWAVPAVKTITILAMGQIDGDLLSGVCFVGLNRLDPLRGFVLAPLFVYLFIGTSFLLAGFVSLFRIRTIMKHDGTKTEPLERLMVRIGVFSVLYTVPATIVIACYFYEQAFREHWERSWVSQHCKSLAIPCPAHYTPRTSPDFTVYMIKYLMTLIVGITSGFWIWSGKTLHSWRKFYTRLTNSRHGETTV
Frizzled-1, sequence (Q08463 whole entry): as the sequence (Q08463 whole entry) above
Frizzled-2, sequence (Q08464 whole entry): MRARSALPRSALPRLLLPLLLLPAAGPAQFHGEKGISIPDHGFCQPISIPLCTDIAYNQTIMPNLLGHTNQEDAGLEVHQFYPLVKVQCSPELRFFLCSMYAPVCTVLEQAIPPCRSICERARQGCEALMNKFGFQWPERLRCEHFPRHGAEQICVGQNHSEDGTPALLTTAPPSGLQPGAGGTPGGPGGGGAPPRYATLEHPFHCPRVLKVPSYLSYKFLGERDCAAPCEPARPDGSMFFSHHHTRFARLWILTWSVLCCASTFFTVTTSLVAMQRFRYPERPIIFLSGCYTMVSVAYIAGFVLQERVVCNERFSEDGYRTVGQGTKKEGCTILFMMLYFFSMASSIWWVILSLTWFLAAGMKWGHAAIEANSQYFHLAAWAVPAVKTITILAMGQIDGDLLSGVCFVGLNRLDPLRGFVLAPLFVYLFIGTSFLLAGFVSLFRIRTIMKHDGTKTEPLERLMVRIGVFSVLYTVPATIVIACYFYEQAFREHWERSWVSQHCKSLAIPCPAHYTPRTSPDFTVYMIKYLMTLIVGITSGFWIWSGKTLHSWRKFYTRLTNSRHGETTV

Usually inhibition stands for the change of the read-out against control, counted positive when it falls. In general, IC50 refers to the point on the concentration scale where inhibition reaches its midpoint. In the case of `CC(=O)NCC(=O)N[C@@H](CO)C(=O)N[C@@H](CS)C(=O)N[C@@H](CO)C(=O)N[C@@H](CC(C)C)C(=O)N[C@@H](CCCCN)C(=O)N[C@H](C(=O)N[C@@H](CS)C(=O)N[C@@H](Cc1c[nH]c2ccccc12)C(=O)N[C@@H](CC(C)C)C(=O)N[C@@H](CCC(N)=O)C(=O)N[C@@H](CC(C)C)C(=O)N[C@@H](C)C(=O)N[C@@H](CC(=O)O)C(N)=O)[C@@H](C)O` (Ac-GSCSLKTCWLQLAD-NH2), the result in [1], in assay [2], in assay [9], in assay [10], in assay [11] and in assay [12] was inactive. Moreover, the inhibition in assay [3], in assay [4], in assay [5], in assay [6], in [7] and in assay [8] was 100% throughout. Also, the IC50 against Frizzled-1 worked out at 2060 nM; against Frizzled-2, 2110 nM.
